Results: patent US5958978A, “Specific cyclooxygenase 2 inhibitor and anti-inflammatory agent” (Kabushiki Kaisha Yakult Honsha, priority 1995, dated 1999)
Where two headings read alike, the source gives them in different places.

Experiments:
cyclooxygenase 1 = target: T1, cyclooxygenase 1 (Ovis aries, UniProt P05979); assay: biochemical; details: for Inhibitory effect on cyclooxygenase 1 (in words): 0.01-100 μM
T1 sequence (P05979 25-600): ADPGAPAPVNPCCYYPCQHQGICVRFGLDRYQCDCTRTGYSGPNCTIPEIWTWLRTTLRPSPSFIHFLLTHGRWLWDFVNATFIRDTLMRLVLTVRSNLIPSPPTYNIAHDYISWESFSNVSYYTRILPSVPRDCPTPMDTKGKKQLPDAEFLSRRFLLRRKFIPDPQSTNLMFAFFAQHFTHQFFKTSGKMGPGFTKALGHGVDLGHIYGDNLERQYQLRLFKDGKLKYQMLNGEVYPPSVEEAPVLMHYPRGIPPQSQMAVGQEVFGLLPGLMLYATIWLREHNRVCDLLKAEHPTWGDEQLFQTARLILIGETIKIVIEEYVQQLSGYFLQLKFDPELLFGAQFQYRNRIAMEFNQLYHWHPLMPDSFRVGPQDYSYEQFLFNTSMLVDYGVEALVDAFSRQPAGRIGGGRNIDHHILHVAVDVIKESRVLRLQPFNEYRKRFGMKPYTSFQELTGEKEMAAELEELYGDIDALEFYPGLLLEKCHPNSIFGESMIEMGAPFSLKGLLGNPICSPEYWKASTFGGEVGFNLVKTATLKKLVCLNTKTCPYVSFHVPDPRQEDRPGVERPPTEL
Protocol: (§1) (Specific Inhibitory Effect on Cyclooxygenase)
(§2) After the incubation, 2 μl of a 5 mM solution of arachidonic acid (dissolved in ethanol) were added (end concentration: 100 μM), followed by incubation for additional 5 minutes. After the incubation for 5 minutes, 10 μl of a 22 mM solution of ferrous chloride were added, and the resultant mixture was cooled down to 0° C. to stop the reaction. After stopping the reaction, the reaction mixture was centrifuged at 10,000×g for 5 minutes to determine the amount of prostaglandin E2 in the supernatant liquid thereof in accordance with the enzyme immunoassay. The cyclooxygenase-inhibiting effect of each test agent was determined by the average value of the amounts of prostaglandin E2 produced, which were obtained by repeating the above process twice, and the amount of prostaglandin E2 produced by using DMSO in place of the test agent to conduct the same treatment as described above.

cyclooxygenase 2 = target: T2, cyclooxygenase 2 (Homo sapiens, UniProt P35354)
T2 sequence (P35354 18-604): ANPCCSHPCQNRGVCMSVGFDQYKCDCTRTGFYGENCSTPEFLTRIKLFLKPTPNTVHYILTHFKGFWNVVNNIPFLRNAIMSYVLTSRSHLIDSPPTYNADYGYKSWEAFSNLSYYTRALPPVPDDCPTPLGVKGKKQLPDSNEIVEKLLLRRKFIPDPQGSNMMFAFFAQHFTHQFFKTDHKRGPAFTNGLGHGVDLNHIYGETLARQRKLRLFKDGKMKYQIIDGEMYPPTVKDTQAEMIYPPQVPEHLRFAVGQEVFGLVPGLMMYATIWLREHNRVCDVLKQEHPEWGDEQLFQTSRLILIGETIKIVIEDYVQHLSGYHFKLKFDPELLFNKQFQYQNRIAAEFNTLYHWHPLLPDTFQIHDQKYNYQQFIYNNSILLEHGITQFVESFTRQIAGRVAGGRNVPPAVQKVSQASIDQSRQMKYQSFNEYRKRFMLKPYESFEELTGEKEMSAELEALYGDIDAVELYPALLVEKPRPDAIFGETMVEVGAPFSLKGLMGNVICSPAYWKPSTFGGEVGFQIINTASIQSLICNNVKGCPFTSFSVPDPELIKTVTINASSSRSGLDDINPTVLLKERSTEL
Protocol: as §1, §2

[1] = tested on: Production of Prostaglandin E2 by Stimulation of Human Synovial Cell by IL-1β; assay: Effect on production of prostaglandin E2 by stimulation of human synovial cell by IL-1β; format: cell-based; details: for inhibition at 0.001 µM / inhibition at 0.01 µM / inhibition at 0.1 µM / inhibition at 1 µM / inhibition at 10 µM / inhibition at 100 µM: Synovial cell, human synovial cells, IL-1β, 22 hours, read-out: Percent inhibition of prostaglandin E2
Protocol: (Effect of 4'-Hydroxydiclofenac on Production of Prostaglandin E2 by Stimulation of Human Synovial Cell by IL-1β)
Synovial tissue obtained from a patient suffering from chronic articular rheumatism was placed in a Petri dish, cut and shredded, to which a 0.2% solution of collagenase was added. The mixture was left over for 2 hours under conditions of 5% CO2 and 37° C. An equiamount of a 0.25% solution of trypsin was further added, and the resultant mixture was left over for 2 hours. After cells isolated were collected and centrifuged (170 ×g, 10 minutes) to remove the supernatant liquid thereof, a medium [obtained by adding 10% FCS (fetal calf serum), 2 mM glutamine, 100 U/ml of penicillin, 100 μg/ml of streptomycin and 25 ng/ml of Fungizone to DMEM (Dulbecco modified minimum essential medium)] was added to the cells to wash them once. The cells were suspended in the medium, and the suspension was poured into a Petri dish and cultured under conditions of 5% CO2 and 37° C. Cells adhered to the bottom of the Petri dish were provided as synovial cells. The cells (1×10^5 cells/ml) were poured in 1-ml portions into wells of a 24-well plate and cultured under conditions of 5% CO2 and 37° C. After the cells were proliferated to an extent that they covered almost the entire surface of each well, the medium was changed to an SFM-101 medium (product of Nissui Seiyaku K.K.) containing 1% FCS. […] Furthermore, 10 μl (end concentration: 200 pg/ml) of a solution of IL-1βand 10 μl (end concentration: 10 μM) of arachidonic acid were added to conduct culture for 22 hours under conditions of 5% CO2 and 37° C. After the culture, the supernatant liquid thereof was collected and filtered through a membrane filter (pore size: 0.22 μm, MILLIPORE), thereby determining the amount of prostaglandin E2 in the filtrate in accordance with the enzyme immunoassay. The effect of each test agent on the production of prostaglandin E2 by the human synovial cells was determined by the average value of the amounts of prostaglandin E2 produced, which were obtained by repeating the above process 3 times, and the amount of prostaglandin E2 produced by using DMSO in place of the test agent to conduct the same treatment as described above.

[2] = tested on: Production of Thromboxane B2 in Platelet; assay: Effect on production of thromboxane B2 in platelet; format: cell-based, rabbit; details: for inhibitory effect on the production of thromboxane B2 (in words): 0.001-100 μM; for inhibition at 0.001 µM / inhibition at 0.01 µM / inhibition at 0.1 µM / inhibition at 1 µM / inhibition at 10 µM / inhibition at 100 µM: Oryctolagus cuniculus, Platelet, rabbit platelets, read-out: Percent inhibition of thromboxane B2
Protocol: (Effect of 4'-Hydroxydiclofenac on Production of Thromboxane B2 in Platelet)
Fresh blood [adding 1 volume of ACD (acid-citrate dextrose; consisting of 65 mM citric acid, 85 mM sodium citrate and 110 mM glucose) to 9 volumes of the blood] collected from the heart of a rabbit under Nembutal anesthesia was centrifuged at 200 ×g for 10 minutes to collect the supernatant liquid thereof. The supernatant liquid was centrifuged at 700 ×g for 10 minutes, and precipitated platelets were suspended in an isotonic trishydrochloric acid buffer solution [50 mM tris(hydroxymethyl)aminomethane, 150 mM NaCl, 1 mM EDTA (ethylenediaminetetraacetic acid) and 5 mM glucose; pH: 7.2]. The suspension was further centrifuged at 700 ×g for 10 minutes and washed. […] The thus-adjusted platelet suspension was poured in 1-ml portions into test tubes. […] After the incubation, 10 μl (end concentration: 2 mM) of 200 mM CaCl2 and 5 μl (end concentration: 5 μM) of 1 mM arachidonic acid were added, followed by incubation for additional 5 minutes. After the incubation, the test tube was transferred to an ice bath to stop the reaction. The test tube was centrifuged at 1,500 ×g and 4° C. for 10 minutes. After the supernatant liquid thereof was filtered through a membrane filter (pore size: 0.22 μm, MILLIPORE), the amount of thromboxane B2 in the filtrate was determined in accordance with the enzyme immunoassay. The effect of each test agent on the production of thromboxane B2 in the platelet was determined by the average value of the amounts of thromboxane B2 produced, which were obtained by repeating the above process 3 times, and the amount of thromboxane B2 produced by using DMSO in place of the test agent to conduct the same treatment as described above.

[3] = read-out: Percent inhibition of cyclooxygenase 1

| Compound | Inhibitory effect on cyclooxygenase 1 (in words) (cyclooxygenase 1) | inhibition at 0.001 µM [1] | inhibition at 0.01 µM [1] | inhibition at 0.1 µM [1] | inhibition at 1 µM [1] | inhibition at 10 µM [1] | inhibition at 100 µM [1] | inhibitory effect on the production of thromboxane B2 (in words) [2] | inhibition at 0.001 µM [2] | inhibition at 0.01 µM [2] | inhibition at 0.1 µM [2] | inhibition at 1 µM [2] | inhibition at 10 µM [2] | inhibition at 100 µM [2] | other results |
| --- | --- | --- | --- | --- | --- | --- | --- | --- | --- | --- | --- | --- | --- | --- | --- |
| O=C(O)Cc1ccccc1Nc1c(Cl)cc(O)cc1Cl [4'-Hydroxydiclofenac, 2-(2,6-dichloro-4-hydroxyanilino)phenylacetic acid] | no inhibitory effect on cyclooxygenase 1 is recognized | -3% | 0% | 35% | 100% | 100% | 100% | clearly weak compared with indomethacin | -25% | -25% | 0% | 7% | 15% | 77% | Percent inhibition of cyclooxygenase 1 (cyclooxygenase 1; 0.01 μM): 0%; Percent inhibition of cyclooxygenase 1 (cyclooxygenase 1; 0.1 μM): 0%; Percent inhibition of cyclooxygenase 1 (cyclooxygenase 1; 1 μM): 13%; Percent inhibition of cyclooxygenase 1 (cyclooxygenase 1; 10 μM): 3%; Percent inhibition of cyclooxygenase 1 (cyclooxygenase 1; 100 μM): 15%; Percent inhibition of cyclooxygenase 2 (cyclooxygenase 2; 0.01 μM): 21%; Percent inhibition of cyclooxygenase 2 (cyclooxygenase 2; 0.1 μM): 18%; Percent inhibition of cyclooxygenase 2 (cyclooxygenase 2; 1 μM): 22%; Percent inhibition of cyclooxygenase 2 (cyclooxygenase 2; 10 μM): 82%; Percent inhibition of cyclooxygenase 2 (cyclooxygenase 2; 100 μM): 90%; Inhibitory effect on cyclooxygenase 2 (in words) (cyclooxygenase 2; 0.01-100 μM): only an inhibitory effect on the cyclooxygenase 2 activity is recognized; inhibitory effect on prostaglandin E2 (in words) ([1]; 0.001-100 μM, compared with indomethacin): almost comparable to indomethacin |
| O=C(O)Cc1ccccc1Nc1c(Cl)cccc1Cl [Diclofenac] | Inhibitory effects on cyclooxygenase 1 and cyclooxygenase 2 are recognized | 14% | 61% | 99% | 100% | 100% | 100% | an inhibitory effect on the production of thromboxane B2 is recognized | 46% | 70% | 68% | 77% | 93% | 99% | inhibition at 0.01 µM (cyclooxygenase 1; [3]): 25%; inhibition at 0.1 µM (cyclooxygenase 1; [3]): 25%; inhibition at 1 µM (cyclooxygenase 1; [3]): 38%; inhibition at 10 µM (cyclooxygenase 1; [3]): 57%; inhibition at 100 µM (cyclooxygenase 1; [3]): 87% |
| COc1ccc2c(c1)c(CC(=O)O)c(C)n2C(=O)c1ccc(Cl)cc1 [Indomethacin] |  | -3% | 5% | 62% | 100% | 100% | 100% | an inhibitory effect on the production of thromboxane B2 is recognized | 2% | 50% | 76% | 77% | 78% | 78% |  |
